Columns and labels:
[1] = tested on: mmp13a; experiment: qPCR mmp13 expression, whole larvae; assay type: in vivo, zebrafish; details: wildtype, 48 hr paclitaxel
Protocol: Zebrafish larvae (AB/Nacre) were treated in pools of ~20-30 larvae per treatment per biological replicate (BR); each BR consisted of embryos from distinct parents. Larvae were collected into 1.5 ml reaction tubes post-treatment and RNA extraction was performed using the rNeasy Plus Micro kit (Qiagen, Cat. No. 74034). cDNA was synthesized from ~300 ng total RNA using the Superscript IV VILO kit (Thermo Fisher, Cat. No. 11756050). Primers in target genes were designed wherein primers annealed in two exons separated by one or several large introns that could not be amplified with the selected PCR settings, to avoid genomic DNA contamination. Quantitative PCR was performed with the Applied Biosystems QuantStudio 3 using PowerUp SYBR Green (ThermoFisher, Cat No. A25741). Amplification signals for expressed target genes were normalized to zebrafish 18S rRNA signals. qPCR conditions were used as follows: 95 °C for 10 minutes, 40 cycles of 95 °C for 15 seconds, 50 °C for 30 seconds, 72 °C for 30 seconds. Each biological replicate was run in quadruplicate. Data were presented as relative expression compared to control using the delta-vdelta Ct (2^^-ΔΔCt) method.
Stretching was performed after 96 hr treatment, followed by 2 hr post-stretch fixation, and staining for detection of acetylated tubulin in axons.

[2] = tested on: HyPer oxidation in keratinocytes; experiment: HyPer imaging of H2O2 production upon caudal fin stretch; assay type: in vivo, zebrafish; details: wildtype, 3 hr paclitaxel
Protocol: HyPer fluorescence was measured in the oxidized (505 nm) and unoxidized (420 nm) channels by using the region of interest (ROI) function in ZEN Black (Zeiss) whereby ROIs were selected inside highly magnified mitochondria (HyPer-mito), cytoplasm (HyPer-cyto) or the plasma membrane (HyPer-CAAX). The data was exported, and ratios determined in Excel. H2O2 measurements in zebrafish transiently injected with tp63:Hyper were manually performed by placing spot objects in Imaris 9.5.1 onto individual cells such that the spots extended to the lateral edges. Fluorescence intensities were measured inside the spots and 505 nm/420 nm ratios were subsequently calculated.
The extent of stretch that was induced in wildtype transgenic Tg(tp63:GFP-CAAX) (Lisse et al., 2016, Proceedings of the National Academy of Sciences of the United States of America 113: E2189-2198) fish in which keratinocyte plasma membranes are fluorescently labelled was characterized.
To further investigate whether paclitaxel in combination with stretch alters ROS formation, HyPer imaging was performed.

[3] = tested on: suprabasal keratinocytes; experiment: dfMT formation in mouse epidermis; assay type: in vivo; details: single injection 20 mg/kg
Protocol: The mice in each cage were randomly allocated to different treatment groups. Food and water were available ad libitum and experiments were performed during the light cycle (7:00 am to 7:00 pm). Animals were euthanized via CO2 asphyxiation, followed by cervical dislocation. […] The animal's husbandry conformed with established NIH and Institutional Animal Care and Use Committee (IACUC) approved protocols.
Paws and back skin were collected at predetermined time points, placed in 10% formalin, and stored overnight at 4 °C. Samples were embedded in paraffin and sectioned at 7 μm, deparaffinized, washed with PBS, and incubated at room temperature for 5 min in 0.1% Triton X-100 in PBS and then blocked for 30 min (5% BSA). Sections were incubated with primary antibody diluted in blocking solution, overnight at 4 °C in a humidity chamber. Following PBS washes, sections were incubated for 1 h at room temperature with a secondary antibody. Tissues were mounted and assessed for staining. Antibodies used were against detyrosinated tubulin Millipore AB3201, p-KIF11 Invitrogen PA5-38647, alpha-tubulin Proteintech 66031-1-Ig, mouse Alexa Fluor 488 Invitrogen A21202, and rabbit Alexa flour 546 Invitrogen A10040. DAPI was used for nuclei counterstaining. […]

## CC(=O)O[C@H]1C(=O)[C@@]2(C)[C@H]([C@H](OC(=O)c3ccccc3)[C@]3(O)C[C@H](OC(=O)[C@H](O)[C@@H](NC(=O)c4ccccc4)c4ccccc4)C(C)=C1C3(C)C)[C@]1(OC(C)=O)CO[C@@H]1C[C@@H]2O [paclitaxel]
[1]
  mmp13 expression: increased mmp13 expression
[2]
  time of peak HyPer oxidation post-stretch: 10 to 20 min
[3]
  dfMT formation in mouse epidermis: resulted in dfMT formation in a subset of suprabasal keratinocytes

Source: patent US20260345584A1, “METHODS AND PHARMACEUTICAL COMPOSITIONS FOR TREATING CHEMOTHERAPY-INDUCED PERIPHERAL NEUROPATHY WITH EG5 INHIBITORS” (UNIVERSITY OF MIAMI, priority 2023, published 2026)
